Source: patent publication US7626076B2, “Transgenic mouse whose genome comprises a homozygous disruption of its α1G gene, a method of preparing the same and use thereof” (Orient Bio., Inc., priority 2002, dated 2009)

Legend:
Assay type in all cases: in vivo, mouse
[1] = system: wild-type and α1G −/− mice; assay: SWD generation in epidural EEG after systemic injection of absence seizure-inducing agents; settings: for SWD generation in epidural EEG: α1G −/− mice
Text: To examine the role of α1G in the generation of SWDs in vivo, the present inventors systematically [“systemic” and “systematic” are different] injected into α1G −/− mice and wild-type mice either γ-butyrolactone, a prodrug of γ-hydroxybutyric acid, or (RS)-baclofen. Absence seizures induced by these drugs are characterized by bilaterally synchronous SWDs and have been associated with behavioral arrest, facial myoclonus, and vibrissal twitching.

[2] = system: wild-type and α1G −/− mice; assay: Thalamic field activity (depth electrodes) and epidural EEG after (RS)-baclofen in freely moving animals; settings: 30 mg/kg i.p.
Procedure: To confirm the result of Example 6, the present inventors examined the field activity of thalamic nuclei using depth electrodes in freely moving animals. […] To examine the thalamic SWDs, the present inventors injected (RS)-baclofen i.p. at 30 mg/kg instead of the dose, i.e., 20 mg/kg, used previously (FIG. 4B). […] The administration of baclofen synchronized all thalamic activities into 2-3 Hz SWDs in wild-type nice (FIG. 5B, left). In the α1G −/− thalamus, however, baclofen reduced the amplitudes of peaks in a wide range of frequency, as if it caused general desynchronization (FIG. 5B, right).

[3] = system: wild-type and α1G −/− mice; assay: Convulsive seizures induced by 4-AP (EEG and behavioral seizure score)
Text: The present inventors tested whether the seizure resistance of α1G −/− mice was specific to absence seizures. […] The EEG pattern of these ictal discharges was quite different from that observed in the spike-and-wave seizures induced by baclofen or bicuculline.
The below scores grade the seizures according to behavioral seizures as monitored by video.
1: mild tremors of the head
2: whole body tremors with loss of postural control
3: erratic running, erratic jumping, or tonic-clonic movement of the limbs
4: tonic extension of the whole body or death

[4] = system: wild-type and α1G −/− mice; assay: EEG recording of cortex and thalamus after injection of BMB; settings: 10 mg/kg into the peritoneal cavity
Procedure: Systematic administration or focal injection of bicuculline into the cortex has been known to evoke SWDs mainly originating from the territory of the cortex (Steriade and Contreras, Journal of Neurophysiology, 1998, 80, 1439-55). To determine the role of α1G in the cortex-dependent mechanism of SWDs, the present inventors examined the EEG pattern after injection of BMB into the peritoneal cavity of mice at 10 mg/kg.
However, because of the complexity of the bicuculline-induced seizures, the present inventors could not conclude whether there is any quantitative difference in the amplitude of the SWDs or in the time lag of SWD occurrences for the two types of mice (i.e., wild-type and α1G −/−). […] Thus, it seems that the BMB-induced SWDs observed here are also associated with other types of generalized seizures.

## NCC(CC(=O)O)c1ccc(Cl)cc1 (racemic) [(RS)-baclofen]
[1]; wild-type mice, 20 mg/kg
  frequency of SWDs in epidural EEG: 3-4 Hz
[1]; 20 mg/kg
  SWD generation in epidural EEG: marked resistance to the generation of SWDs
[2]; duration of SWDs significantly increased versus 20 mg/kg
  frequency of SWDs in epidural EEG: 2-3 Hz
[2]; wild-type thalamus
  frequency of SWDs in thalamus (field recording): 2-3 Hz
[2]; α1G −/− thalamus
  SWD generation in thalamus (field recording): no such synchronized activities were observed

## Nc1ccncc1 [4-AP, 4-aminopyridine]
[3]; 2 mg/kg into the peritoneal cavity, C57BL/6J and 129/sv
  mice that developed seizures: 25%
[3]; 10 mg/kg into the peritoneal cavity, C57BL/6J and 129/sv
  mice that developed tonic-clonic seizures: All of the mice
[3]; 10 mg/kg, both wild-type and α1G −/− mice
  time to vigorous ictal discharges after injection: 30 to 40 min
[3]; seizure score 0-4, 2 mg/kg and 10 mg/kg
  severity of induced seizures graded by behavioral symptoms, wild-type versus α1G −/− mice: no quantitative difference

## C[N+]1(C)CCc2cc3c(cc2[C@H]1[C@@H]1OC(=O)c2c1ccc1c2OCO1)OCO3.[Br-] [BMB, bicucullinemethobromide]
[4]
  time to initiation of seizure spikes in the cortex: within five minutes
[4]; α1G −/− mice
  SWD generation in EEG: exhibited SWD-like activities

## O=C1CCCO1 [γ-butyrolactone]
[1]; wild-type mice, 70 mg/kg
  frequency of paroxysmal SWDs in epidural EEG: 3-5 Hz
[1]; 70 mg/kg
  SWD generation in epidural EEG: did not display typical SWD patterns
